Ki data for four molecules are collected here from PMC6807911, “A structure-based approach towards the identification of novel antichagasic compounds: Trypanosoma cruzi carbonic anhydrase inhibitors” (Journal of Enzyme Inhibition and Medicinal Chemistry, 2019).

pKi: −log10 of the molar value.

In the assay the target is T1, TcCA (Trypanosoma cruzi carbonic anhydrase) (Trypanosoma cruzi, UniProt Q4CVY4).
T1 construct: gene Tc00.1047053509597.20
T1 sequence (Q4CVY4 39-638): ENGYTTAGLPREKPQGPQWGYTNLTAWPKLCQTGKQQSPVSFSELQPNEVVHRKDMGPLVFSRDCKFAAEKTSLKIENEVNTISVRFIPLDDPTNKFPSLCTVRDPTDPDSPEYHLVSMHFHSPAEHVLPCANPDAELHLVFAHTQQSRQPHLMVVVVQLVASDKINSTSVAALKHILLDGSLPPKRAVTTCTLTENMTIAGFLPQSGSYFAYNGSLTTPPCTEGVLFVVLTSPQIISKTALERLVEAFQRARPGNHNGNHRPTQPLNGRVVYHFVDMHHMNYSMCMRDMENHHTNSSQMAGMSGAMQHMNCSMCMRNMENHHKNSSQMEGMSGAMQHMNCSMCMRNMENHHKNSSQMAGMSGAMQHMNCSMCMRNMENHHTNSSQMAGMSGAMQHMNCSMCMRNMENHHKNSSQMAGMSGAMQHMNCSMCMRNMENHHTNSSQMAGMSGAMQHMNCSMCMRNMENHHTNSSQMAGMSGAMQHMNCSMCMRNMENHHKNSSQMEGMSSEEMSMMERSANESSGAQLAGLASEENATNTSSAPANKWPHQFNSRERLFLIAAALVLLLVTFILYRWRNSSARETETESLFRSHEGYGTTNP
The assay can be described thus: stopped-flow CO2 hydration assay. It counts as biochemical. As to conditions: read-out: KITcCA. From the text:
stopped-flow CO2 hydration assay on TcCA (Trypanosoma cruzi carbonic anhydrase)

Take `CC1=CC(=O)NS(=O)(=O)O1` [Acesulphame]: the pKi was 5.65.
In the case of `O=S(=O)(O)NC1CCCCC1` [Sodium cyclamate], the pKi was 6.46.
For the molecule `COC(=O)[C@H](Cc1ccccc1)NS(=O)(=O)NCC(C)C` [compound 5, 5], the pKi is 6.58.
Regarding `COC(=O)CCNS(=O)(=O)NCCc1ccccc1` [compound 7, 7], the pKi is 5.14.
